Results on 13 compounds are retold here after article PMC5609566, “Elucidation of antimicrobial activity and mechanism of action by N-substituted carbazole derivatives” (Bioorganic & Medicinal Chemistry Letters, 2017).

≈ marks a conversion by molar mass, not a printed value. Where two headings read alike, the source gives them in different places.

Assay [1] concerns Staphylococcus aureus ATCC 29213. Description: Bacterial growth inhibition assay. The class given is cell-based. The conditions noted are these: ATCC29213; Staphylococcus aureus ATCC 29213, n=3. From the text: (§1) To further support the notion that the carbazole H^+-ATPase inhibitors were specific inhibitors of fungal growth, we tested the effect of all fifteen compounds on the growth of two bacterial species; the gram-positive Staphylococcus aureus and the gram-negative Escherichia coli. […] Compound 16 and 17 were interesting as they were potent inhibitors of the ATP hydrolysis in the enzymatic assay and potent H^+-ATPase inhibitors in whole fungal cell assay (iATP and extracellular acidification).
(§2) The bacterial strains used in this study were purchased from DSMZ, Germany. Bacteria cells were grown in Mueller-Hinton broth (MHB) to mid-exponential phase and freeze stocks were prepared at 1-2 × 10^8 CFU/mL in MHB and 20% glycerol and stored at -20 °C. These stocks were used to inoculate bacterial growth assays at a final concentration of 5 × 10^5 CFU/mL in MHB together with 1.5 % DMSO or compound in a 96-well plate and incubated for 16-29 h at 35 °C, whereafter growth was determined by reading at OD600. Kanamycin and ampicillin were used as positive control compounds. Experiments were performed at least twice and standard errors were typically less than 5 %.

Assay [2] deals with Escherichia coli ATCC 25922. Description: Bacterial growth inhibition assay. The class given is cell-based. The conditions noted are these: ATCC25922; Escherichia coli ATCC 25922, n=3.
Excerpt: as §1, §2

The subject of assay [3] is C. albicans cells. Description: Intracellular ATP determination. The class given is cell-based. The conditions noted are these: compound at 20 µM, 30 minutes, mean ± SEM n = 5. An excerpt: It was subsequently evaluated whether or not the carbazoles were able to prevent extracellular acidification of the surrounding media by blocking the pumping activity of the H^+-ATPase within fungal cells.[15] […] The H^+-ATPase requires ATP to transport protons out of fungal cells. Consequently, a decrease in intracellular ATP (iATP) levels will indirectly affect H^+-ATPase activity. […] In all cases, iATP levels were […] in C. albicans cells exposed to carbazoles compared to the untreated control. […] This implies that the carbazoles need to pass the fungal membrane to inhibit the H^+-ATPase and 7, 18 and 19 may have reduced membrane permeability.
C. albicans cells were transferred to 3 ml of YPD media and grown overnight at 30 °C and 150 rpm. The cells were pelleted at 2000 × g for 2 min. and washed in PBS (Sigma-Aldrich, catalog number 8537) twice before re-suspension to an OD600 of 0.1. Cell suspension (98 µL) and 2 µl compound in DMSO were incubated for 30 minutes at RT. Forty microliters of this suspension was then transferred to a black 96-well plate containing 40 µl BacTiterGlo reagent (Promega, Madison, WI) and the plate was incubated for 15 minutes in the dark at room temperature. Luminescence was read on a SpectraMax X5 (Molecular Devices, Sunnyvale, CA) plate reader with 10 s shake and 0.5 s integration time. A standard curve containing 10, 100 and 1000 nM ATP was prepared for every experiment.

In assay [4] the target is T1, Mammalian Ca^2+-ATPase (Oryctolagus cuniculus, UniProt P04191).
T1 construct: from tissue; host or cells: rabbit hind leg muscle, sarcoplasmic reticulum membranes (gift, Aarhus University)
T1 sequence (P04191 1-994 isoform P04191-2): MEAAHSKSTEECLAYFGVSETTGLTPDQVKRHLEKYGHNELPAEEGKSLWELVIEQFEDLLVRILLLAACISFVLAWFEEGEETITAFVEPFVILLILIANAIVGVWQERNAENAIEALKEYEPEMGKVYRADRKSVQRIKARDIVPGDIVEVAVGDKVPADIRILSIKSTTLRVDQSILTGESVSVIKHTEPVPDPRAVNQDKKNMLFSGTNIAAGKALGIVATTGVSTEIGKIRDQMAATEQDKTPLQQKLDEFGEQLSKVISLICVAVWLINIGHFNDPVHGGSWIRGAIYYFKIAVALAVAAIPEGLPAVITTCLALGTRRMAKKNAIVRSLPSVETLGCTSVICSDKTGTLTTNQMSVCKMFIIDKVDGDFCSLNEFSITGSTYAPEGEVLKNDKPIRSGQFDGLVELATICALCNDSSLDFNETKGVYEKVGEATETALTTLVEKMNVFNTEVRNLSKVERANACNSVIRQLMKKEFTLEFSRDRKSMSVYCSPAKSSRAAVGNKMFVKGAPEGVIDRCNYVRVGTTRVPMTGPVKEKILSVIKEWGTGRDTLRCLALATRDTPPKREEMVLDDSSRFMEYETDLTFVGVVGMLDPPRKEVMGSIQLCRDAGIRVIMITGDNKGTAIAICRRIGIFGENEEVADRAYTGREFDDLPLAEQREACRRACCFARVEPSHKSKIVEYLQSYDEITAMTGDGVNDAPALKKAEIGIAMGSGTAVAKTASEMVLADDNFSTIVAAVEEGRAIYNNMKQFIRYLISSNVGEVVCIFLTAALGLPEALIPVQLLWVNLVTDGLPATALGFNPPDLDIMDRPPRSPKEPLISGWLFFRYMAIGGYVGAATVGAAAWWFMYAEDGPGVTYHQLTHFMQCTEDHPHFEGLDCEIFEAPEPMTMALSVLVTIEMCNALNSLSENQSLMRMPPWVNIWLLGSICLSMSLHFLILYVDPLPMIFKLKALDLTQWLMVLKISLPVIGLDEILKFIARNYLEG
Description: Colorimetric ATPase assay, rabbit sarcoplasmic reticulum membranes (SERCA). The format is biochemical. An excerpt: (§3) To investigate the H^+-ATPase inhibitory effect of the compounds we isolated plasma membranes containing H^+-ATPase from S. cerevisiae and C. albicans cells.[15] Plasma membranes isolated from pig kidney as well as endoplasmic reticulum membranes from rabbit hind leg muscle were used to counter-screen compounds for activity against mammalian Na^+,K^+-ATPase and Ca^2+-ATPase, respectively. Prior to their use, fungal plasma membrane batches were validated by determining the maximum ATP hydrolysis activity, the pH optimum of the ATPase activity, and the sensitivity to inhibition by orthovanadate. ATPase activity was determined by a colorimetric assay that measures the amount of inorganic phosphate liberated over time, as described in Kjellerup et al., 2017.[15] Table 2, Table 3, Table 4 list the IC50 values obtained by measuring the concentration dependence of the ATPase activity for the fifteen carbazole compounds with each of the four membrane preparations.
(§4) Pma1-containing plasma membranes were prepared from S. cerevisiae RS72 yeast cells that had been transformed with the full-length cDNA of the S. cerevisiae plasma membrane H^+-ATPase isoform PMA1 under control of the PMA1 promoter, using the same procedure as described in Kongstad et al., 2014^1. For the preparation of C. albicans membranes, a 100 ml overnight culture grown in YPD (10 g/L yeast extract (BD, Sparks, MD), 20 g/L Bacto peptone (BD), 20 g/L D-(+)-glucose) was transferred to 1 L YPD and grown for a further 7 h at RT with agitation (150 rpm), followed by cell harvesting and subsequent membrane preparation using the same procedure as described in Kongstad et al., 2014^1. […] Rabbit sarcoplasmic reticulum membranes containing Sarco/Endoplasmic Reticulum Ca^2+ ATPase (SERCA) were kindly provided by Dr. Claus E. Olesen and Dr. Jesper V. Møller, Aarhus University and prepared as described in Andersen et al., 1985^2. Pig kidney Na^+,K^+-ATPase was kindly provided by Dr. Natalya Fedosova, Aarhus University and prepared as described in Klodos et al., 2002^3.
(§5) The compound libraries were purchased from Enamine Ltd, Ukraine and Chembridge Corp, USA. ATPase activity was determined by measuring the amount of liberated phosphate from ATP hydrolysis. […] Reactions were initiated by the addition of Na-ATP to a final concentration of 2.5 mM (Pma1 and Na^+,K^+-ATPase) or 5 mM (SERCA), followed by 30 minutes incubation at 30 °C. The amount of liberated phosphate was determined colorimetrically after addition of STOP solution (mixture of L-ascorbic acid, ammonium heptamolybdate tetrahydrate, and HCl to give final concentrations of 65 mM, 2.2 mM, and 189 mM, respectively) with 5 minutes incubation at room temperature (RT) followed by addition of arsenite solution (mixture of NaAsO2, sodium citrate dihydrate, and acetic acid to give final concentrations of 3.1 mM, 28 mM, and 141 mM, respectively). Absorption was measured at 860 nm after an additional 30 minutes incubation at RT.

Assay [5] concerns the target T2, S. cerevisiae H^+-ATPase (Saccharomyces cerevisiae, UniProt P05030).
T2 construct: transformed with the full-length cDNA of the S. cerevisiae plasma membrane H^+-ATPase isoform PMA1; made in house; host or cells: S. cerevisiae RS72
Description: Colorimetric ATPase assay (ATP hydrolysis), S. cerevisiae plasma membranes. The format is biochemical. As to conditions: for IC50: pH 7, n = 3.
Excerpt: as §3, §4, §5

For assay [6], the target named is T3, Mammalian Na^+,K^+-ATPase (Sus scrofa, UniProt P05024).
T3 construct: from tissue; host or cells: pig kidney plasma membranes (gift, Aarhus University; prepared per Klodos et al., 2002)
Description: Colorimetric ATPase assay, pig kidney membranes. The format is biochemical. The conditions noted are these: for IC50: pH 7, n = 3, read-out: ATP hydrolysis IC50 Mammalian Na^+,K^+-ATPase; for selectivity among the four ATPases: lower IC50 value on Na^+,K^+-ATPase.
Excerpt: as §3, §4, §5

[7] abbreviates: pH 7, n = 3, read-out: ATP hydrolysis IC50 Mammalian Ca^2+-ATPase.

T2 sequence (P05030 whole entry, canonical isoform): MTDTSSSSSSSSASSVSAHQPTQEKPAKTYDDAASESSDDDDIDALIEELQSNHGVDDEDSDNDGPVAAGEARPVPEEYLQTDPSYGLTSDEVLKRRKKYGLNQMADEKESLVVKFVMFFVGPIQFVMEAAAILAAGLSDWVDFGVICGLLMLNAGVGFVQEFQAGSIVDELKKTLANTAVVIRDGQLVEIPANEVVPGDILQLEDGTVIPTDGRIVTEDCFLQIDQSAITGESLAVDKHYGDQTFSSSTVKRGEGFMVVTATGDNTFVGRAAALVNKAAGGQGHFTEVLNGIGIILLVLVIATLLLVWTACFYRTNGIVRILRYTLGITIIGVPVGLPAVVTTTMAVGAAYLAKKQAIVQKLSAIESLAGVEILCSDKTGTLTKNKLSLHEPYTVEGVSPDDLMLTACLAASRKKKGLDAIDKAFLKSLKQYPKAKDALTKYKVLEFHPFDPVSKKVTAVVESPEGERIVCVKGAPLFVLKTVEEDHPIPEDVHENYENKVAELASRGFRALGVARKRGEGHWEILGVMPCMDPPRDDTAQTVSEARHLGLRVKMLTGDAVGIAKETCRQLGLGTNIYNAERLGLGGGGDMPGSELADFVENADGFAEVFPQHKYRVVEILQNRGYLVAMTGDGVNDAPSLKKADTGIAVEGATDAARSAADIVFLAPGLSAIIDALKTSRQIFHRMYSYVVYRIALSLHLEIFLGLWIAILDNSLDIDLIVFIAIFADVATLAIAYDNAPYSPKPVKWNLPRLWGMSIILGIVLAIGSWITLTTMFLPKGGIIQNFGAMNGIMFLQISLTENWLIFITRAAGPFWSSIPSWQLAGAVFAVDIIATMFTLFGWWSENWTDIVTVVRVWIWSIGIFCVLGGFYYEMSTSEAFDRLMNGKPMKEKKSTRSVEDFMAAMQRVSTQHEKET

As a reminder, the MIC is the least concentration at which growth counts as inhibited. A low value points to greater potency. Broadly, the IC50 is the point on the concentration scale where inhibition reaches its midpoint. Take `OC(CN1CCOCC1)Cn1c2ccc(Cl)cc2c2cc(Cl)ccc21` (centres unmarked) [Compound 7, 1-(3,6-dichloro-9H-carbazol-9-yl)-3-morpholinopropan-2-ol]: the minimal inhibitory concentration (MIC) in assay [1] is 41 µM (≈ 15.6 µg/mL); in assay [2], above 75 µM. In assay [3], this compound gave an iATP of 93 ± 45 nM. The half-inhibitory concentration (IC50) is 19.6 ± 7.2 µM in assay [4] (setting [7]), 6.9 ± 1.3 µM in assay [5] and 6 ± 1.3 µM in assay [6].
As for `CN(C)CCCn1c2ccc(Cl)cc2c2cc(Cl)ccc21` [Compound 14, 3-(3,6-dichloro-9H-carbazol-9-yl)-N,N-dimethyl-propan-1-amine], the minimal inhibitory concentration (MIC) is 7.5 µM (≈ 2.41 µg/mL) in assay [1] and 75 µM (≈ 24.1 µg/mL) in assay [2]. The IC50 in assay [4] came to 13 ± 2.1 µM; in assay [5], 36.2 ± 3.1 µM; in assay [6], 2.1 ± 0.5 µM.
On to `Clc1ccc2c(c1)c1cc(Cl)ccc1n2CCCN1CCOCC1` [Compound 18, 4-(3-(3,6-dichloro-9H-carbazol-9-yl)propyl)morpholine], for which the minimal inhibitory concentration (MIC) in assay [1] and in assay [2] was above 75 µM in each case. Besides, the concentration for half-maximal inhibition (IC50) in assay [4] was 70.9 ± 8.4 µM; in assay [5] it was 11.1 ± 3.8 µM; in assay [6], 7.7 ± 3.1 µM. For the same compound, the “potency on the Ca^2+-ATPase versus the three other pumps” value in assay [4] is listed as “much less potent on the Ca^2+-ATPase than the three other pumps”.
`OC(Cn1cncn1)Cn1c2ccc(Cl)cc2c2cc(Cl)ccc21` (centres unmarked) [Compound 6, 1-(3,6-dichloro-9H-carbazol-9-yl)-3-(1H-1,2,4-triazol-1-yl)propan-2-ol]: the MIC in assay [1] is 41 µM (≈ 14.8 µg/mL); in assay [2], above 75 µM. Further, the figures for the 50% inhibitory concentration (IC50) in assay [4], in assay [5] and in assay [6] were 20.3 ± 3.6 µM, 7.4 ± 1.6 µM and 5.2 ± 0.3 µM, respectively.
As to `CN1CCN(CC(O)Cn2c3ccc(O)cc3c3cc(O)ccc32)CC1` (centres unmarked) [Compound 13, 9-(2-hydroxy-3-(4-methylpiperazin-1-yl)propyl)-9H-carbazole-3,6-diol], the MIC in assay [1] and in assay [2] was above 75 µM throughout. For the same compound, the IC50 in assay [4], in assay [5] and in assay [6] was above 167 µM each time.
As to `O=C(O)C1CCN(CC(O)Cn2c3ccc(Cl)cc3c3cc(Cl)ccc32)CC1` (centres unmarked) [Compound 9, 1-(3-(3,6-dichloro-9H-carbazol-9-yl)-2-hydroxypropyl)piperidine-4-carboxylic acid], the values for the MIC in assay [1] and in assay [2] were 75 µM (≈ 31.6 µg/mL) and above 75 µM, respectively. Also, the half-inhibitory concentration (IC50) is 97.6 ± 25.7 µM in assay [4], 107 ± 11.8 µM in assay [5] and 4 ± 0.7 µM in assay [6]. Further, in assay [6], the “selectivity among the four ATPases” value was “pronounced selectivity towards Na^+,K^+-ATPase”.
Consider `CN1CCN(CC(O)Cn2c3ccc(C#N)cc3c3cc(C#N)ccc32)CC1` (centres unmarked) [Compound 12, 9-(2-hydroxy-3-(4-methylpiperazin-1-yl)propyl)-9H-carbazole-3,6-dicarbonitrile], for which the minimal inhibitory concentration (MIC) in assay [1] and in assay [2] was above 75 µM each time. Besides, the concentration for half-maximal inhibition (IC50) in assay [4] was 92.7 ± 13.1 µM; in assay [5] it was above 167 µM; in assay [6], 10.5 ± 1.4 µM. Moreover, the “selectivity among the four ATPases” value in assay [6] is “pronounced selectivity towards Na^+,K^+-ATPase”.
Take `COc1ccc2c(c1)c1cc(OC)ccc1n2CC(O)CN1CCN(C)CC1` (centres unmarked) [Compound 11, 1-(3,6-dimethoxy-9H-carbazol-9-yl)-3-(4-methylpiperazin-1-yl)propan-2-ol]: the MIC in assay [1] and in assay [2] was above 75 µM in each case. The IC50 in assay [4], in assay [5] and in assay [6] was above 167 µM each time.
With `CN1CCN(CC(O)Cn2c3ccc(Cl)cc3c3cc(Cl)ccc32)CC1` (centres unmarked) [Compound 8, 1-(3,6-dichloro-9H-carbazol-9-yl)-3-(4-methylpiperazin-1-yl)propan-2-ol], the results for the minimal inhibitory concentration (MIC) in assay [1] and in assay [2] were 64 µM (≈ 25.1 µg/mL) and 75 µM (≈ 29.4 µg/mL), respectively. The compound also registered an iATP in assay [3] of 70 ± 25 nM. Besides, the concentration for half-maximal inhibition (IC50) in assay [4] was found to be 36.8 ± 12.2 µM; in assay [5], 52.7 ± 10.6 µM; in assay [6], 9.7 ± 3.3 µM.
As to `CCC(C)NCC(O)Cn1c2ccc(Cl)cc2c2cc(Cl)ccc21` (centres unmarked) [Compound 10, 1-(sec-butylamino)-3-(3,6-dichloro-9H-carbazol-9-yl)propan-2-ol], the values for the minimal inhibitory concentration (MIC) in assay [1] and in assay [2] were 2.9 µM (≈ 1.06 µg/mL) and 20 µM (≈ 7.31 µg/mL), respectively. In addition, the iATP in assay [3] worked out at 491 ± 79 nM. For the same compound, the 50% inhibitory concentration (IC50) in assay [4] (setting [7]) was 0.3 ± 0.1 µM; in assay [5] it was 2 ± 0.2 µM; in assay [6] it was 1 ± 0.2 µM. In addition, in assay [5] (IC50 ratio), the “fold more potent H^+-ATPase inhibition than the parent compounds 1–4” value is “ca. 9 fold”.
Take `CN1CCN(CCCn2c3ccc(Cl)cc3c3cc(Cl)ccc32)CC1` [Compound 16, 3,6-dichloro-9-(3-(4-methylpiperazin-1-yl)propyl)-9H-carbazole]: the minimal inhibitory concentration (MIC) in assay [1] was 24 µM (≈ 9.03 µg/mL); in assay [2] it was 75 µM (≈ 28.2 µg/mL). For the same compound, in assay [3], the iATP was 235 ± 70 nM. Moreover, the values for the IC50 in assay [4], in assay [5] and in assay [6] were 23.2 ± 6.4 µM, 20 ± 1 µM and 2.5 ± 0.6 µM, respectively.
Turning to `OC(Cn1ccnc1)Cn1c2ccc(Cl)cc2c2cc(Cl)ccc21` (centres unmarked) [Compound 5, 1-(3,6-dichloro-9H-carbazol-9-yl)-3-(1H-imidazol-1-yl)propan-2-ol], the figures for the MIC in assay [1] and in assay [2] were 7.5 µM (≈ 2.7 µg/mL) and above 75 µM, respectively. For the same compound, the IC50 is 10.7 ± 2.2 µM in assay [4], 23 ± 12.3 µM in assay [5] and 20.4 ± 2.3 µM in assay [6].
Take `CN(C)CCCCn1c2ccc(Cl)cc2c2cc(Cl)ccc21` [Compound 15]: the minimal inhibitory concentration (MIC) in assay [1] amounted to 24 µM (≈ 8.05 µg/mL); in assay [2] it was 75 µM (≈ 25.1 µg/mL). The same compound showed an iATP in assay [3] of 53 ± 10 nM. Besides, the half-maximal inhibitory concentration (IC50) is 17.5 ± 11.4 µM in assay [4], 51.8 ± 0.5 µM in assay [5] and 5.1 ± 0.8 µM in assay [6].
